Experimental findings from patent US11504428B2, “Photosensitizer and derivatives and application thereof” (DALIAN UNIVERSITY OF TECHNOLOGY, priority 2017, dated 2022) are described below.

A short description of series [1]: Singlet oxygen production, DPBF absorption attenuation under 660 nm light, methylene blue as reference. Type of series: physicochemical. The settings on record: 5 μM in methanol. On the procedure:
Compounds 1-1 and 1-2 synthesized in the embodiment 1 are added to 3 mL methanol solvent with a final concentration of 5 μM. Next, 1, 3-diphenyl isobenzofuran (DPBF) is added, and adjusting the absorbance of DPBF in the solution to about 1.0. Then the ultraviolet absorption curve is measured. According to the changes of the absorbance value of DPBF at 411 nm after each irradiation (660 nm light source), the correlation curve between absorbance and time is drawn. With methylene blue (MB) as reference, the singlet oxygen yield is calculated using the following formula.
(§1) Compounds 1-1 and 1-2 synthesized in the above embodiment 2 are added to 3 mL methanol solvent with a final concentration of 5 μM. Then, the 1,3-diphenyl isobenzofuran (DPBF) is added, and the absorbance of DPBF in the solution is adjusted to about 1.0. Then the ultraviolet absorption curve is measured after each 660 nm red light irradiation. According to the changes of the absorbance value of DPBF at 411 nm, the correlation curve between absorbance and time is drawn. With methylene blue (MB) as reference, the following formula is used to calculate the oxygen yield of its singlet state.
[formula] […] The instruments used are AgIIlent 8453 UV spectrophotometer, and the light source is 300 W xenon lamp.
as §1, with “1-1-IMC” for “1-1”, “2-1-IMC” for “1-2”
Compounds 1-1-Biotin synthesized in the above […] are added to 3 mL methanol solvent with a final concentration of 5 μM. Then, the 1,3-diphenyl isobenzofuran (DPBF) is added, and the absorbance of DPBF in the solution is adjusted to about 1.0. Then the ultraviolet absorption curve is measured after each 660 nm red light irradiation. According to the changes of the absorbance value of DPBF at 411 nm, the correlation curve between absorbance and time is drawn. With methylene blue (MB) as reference, the following formula is used to calculate the oxygen yield of its singlet state.

Series [2] concerns HepG2 cells. The experiment in a line: In vitro cell selectivity test, confocal fluorescence uptake in co-cultured cells, HepG2. Type of series: cell-based. The settings on record: 1 μM, 1 h. As to the method:
(§2) Firstly, HepG2 cells and COS-7 cells are cultured together in a cell culture dish for 24 h, and then 1 μM of 1-1-biotin or 1-1 is added and further incubation for 1 h. After staining, the cells are washed using serum-free medium for three times. Then, 2 mL fresh medium is added, and corresponding fluorescence observation is performed using the laser confocal scanning microscope. The excitation wavelength is 635 nm and the fluorescence receiving channel is 655 nm-755 nm.

Series [3] is described as follows: UV absorption and fluorescence emission spectra in methanol. It is filed as physicochemical. As to conditions: 5 μM in methanol. As to the method:
Compounds 1-1 and 1-2 synthesized from embodiment 1 above are added to 3 mL methanol solvent with a final concentration of 5 μM and their UV absorption spectra and fluorescence emission spectra are measured. […] The instruments used are AgIIlent 8453 UV spectrophotometer and AgIIlent Cary EclIIpse fluorescence spectrophotometer.
Benzophenoselenazine photosensitizer 2-1, 2-2, synthesized from embodiment 2 above are added to 3 mL methanol solvent with a final concentration of 5 μM, and their UV absorption spectra and fluorescence emission spectra are measured. […] The instruments used are AgIIlent 8453 UV spectrophotometer and AgIIlent Cary EclIIpse fluorescence spectrophotometer.
Compounds 1-1-IMC and 2-1-IMC synthesized from embodiment 3 above are added to 3 mL methanol solvent with a final concentration of 5 μM. The UV absorption spectra and fluorescence emission spectra are then measured. […] The instruments used are AgIIlent 8453 UV spectrophotometer and AgIIlent Cary EclIIpse fluorescence spectrophotometer.
Compounds 1-1-Biotin synthesized from embodiment 4 above is added to 3 mL methanol solvent with a final concentration of 5 μM, and then the UV absorption spectra and fluorescence emission spectra are detected. […] The instruments used are AgIIlent 8453 UV spectrophotometer and AgIIlent Cary EclIIpse fluorescence spectrophotometer.

The subject of series [4] is HepG2 (hepatoma cells). The experiment in a line: In vitro anticancer test (MTT cell viability), dark and 660 nm light, HepG2. Type of series: cell-based. As to the method: MCF-7 (human breast) cancer cells or HepG2 (liver cancer cell) are incubated on the cell culture plate in DMEM medium supplemented with 10% FBS and 1% penicillin-streptomycin at 37° C. in a humidified, 5% CO2 atmosphere. Then, the MCF-7 cells are seeded in 96 well cell culture plate at density of 5,000 cells per well. After 24 h incubation, 100 μL of 1-1-Biotin at different concentrations (5, 2.5, 1.25, 0.625, 0.32, 0.16, 0.08, 0.04, 0.02 μM) are added into the each well, and cultured for 1 h. Then, the cell medium is replaced with 200 μL fresh medium. For the phototoxicity test, the 96-well plate is irradiated with 660 nm light source for 10 min and then cultured in the above environment for 12 hours. No light irradiation is used as control. Then 20 μL MTT solution with a concentration of 5 mg/mL is added into each well and incubated in the incubator for another 4 hours. The culture medium is then removed and 200 μL DMSO is added to each well, and the plate is gently shaken for 5 min at room temperature. Finally, the absorbance at 490 nm is measured with a Bio-Rad microplate reader and the cell viability is calculated by the following equation: Cell Viability (%)=[Σ(Ai/Ācontrol×100)]/n
Ai is the absorbance of the ith group of data (I=1, 2 . . . , n), Ācontrol is the average absorbance of the control hole of the drug, and the parallel experiment is more than 3 times.

For series [5], the system named is COS-7 (African green monkey kidney cells). The experiment in a line: In vitro anticancer test (MTT cell viability), dark and 660 nm light, COS-7. It is filed as cell-based.
Series [6] concerns COS-7 cells. The experiment in a line: In vitro cell selectivity test, confocal fluorescence uptake in co-cultured cells, COS-7. Type of series: cell-based, African green monkey. As to conditions: 1 μM, 1 h, COS-7 co-cultured with HepG2, excitation 635 nm. On the procedure: as §2

The structures appear in SMILES notation.

With `CCN(CC)c1ccc2nc3c4ccccc4/c(=N\CCCCCCNC(=O)CCCCC4SC[C@@H]5NC(=O)N[C@H]45)cc-3sc2c1` (some centres unmarked) [1-1-Biotin], in series [1], the singlet oxygen yield came to 0.04. In addition, the “cell uptake / targeting (red fluorescence)” value in series [2] (HepG2 co-cultured with COS-7, excitation 635 nm) is recorded as “can specifically target HepG2 cells”. In series [3], this molecule had a maximum absorption wavelength of 652 nm and a maximum emission wavelength of 681 nm. The “killing effect on biotin receptor overexpressing HepG2 cells relative to COS-7 cells” value in series [4] (660 nm light, HepG2 vs COS-7 with low biotin receptor expression) was “significantly higher”. Further, in series [4] (HepG2, 10 minutes irradiation with 660 nm LED light source, MTT), the “phototoxicity (cell killing)” value was “significant HepG2 cells arr killed”. Besides, in series [4] (HepG2, no light irradiation, MTT), the “dark toxicity (cell survival rate)” value is recorded as “low dark toxicity”. Further, in series [5] (COS-7, 10 minutes irradiation with 660 nm LED light source), the “phototoxicity (cytotoxicity)” value is given as “only limited cytotoxicity”. The “dark toxicity (cell survival rate)” value in series [5] (COS-7, no light irradiation) was “low dark toxicity”. The “cell uptake (red fluorescence)” value in series [6] is reported as “very limited”.
In turn, `CCN(CC)c1ccc2nc3c4ccccc4/c(=N\CCCCCC(=O)O)cc-3[se]c2c1` [2-2] registered a singlet oxygen yield in series [1] of 0.73. Also, in series [3], the maximum absorption wavelength is 661 nm and the maximum emission wavelength turned out to be 702 nm.
On the same counts, the results for `CCN(CC)c1ccc2nc3c4ccccc4/c(=N\CCCCCCNC(=O)Cc4c(C)n(C(=O)c5ccc(Cl)cc5)c5ccc(OC)cc45)cc-3[se]c2c1` [2-1-IMC] are 0.82, 662 nm and 703 nm.
In the case of `CCN(CC)c1ccc2nc3c4ccccc4/c(=N\CCCCCCNC(=O)Cc4c(C)n(C(=O)c5ccc(Cl)cc5)c5ccc(OC)cc45)cc-3sc2c1` [1-1-IMC], the singlet oxygen yield in series [1] was found to be 0.04. In series [3], this molecule yielded a maximum absorption wavelength of 654 nm and a maximum emission wavelength of 694 nm.
`CCN(CC)c1ccc2nc3c4ccccc4/c(=N\CCCCCC(=O)O)cc-3sc2c1` [1-2] came in with a singlet oxygen yield in series [1] of 0.04. In series [3], the maximum absorption wavelength was determined as 655 nm and the maximum emission wavelength was 694 nm.
For the molecule `CCN(CC)c1ccc2nc3c4ccccc4/c(=N\CCCCCCN)cc-3[se]c2c1` [2-1], the singlet oxygen yield in series [1] came out at 0.78. In series [3], this molecule showed a maximum absorption wavelength of 661 nm and a maximum emission wavelength of 702 nm.
Consider `CCN(CC)c1ccc2nc3c4ccccc4/c(=N\CCCCCCN)cc-3sc2c1` [1-1], for which, in series [1], the singlet oxygen yield was 0.04. In series [2] (co-culture of HepG2 and COS-7), the “selectivity of uptake for HepG2 over COS-7 cells” value was “does not have such selectivity”. Further, in series [3], the maximum absorption wavelength stood at 655 nm and the maximum emission wavelength is given as 694 nm.
